Where two headings read alike, the source gives them in different places.
Key:
[1] = biological target: T1, BIKE (amino acids S38-E345) (K320A, K321A) (Homo sapiens, UniProt Q9NSY1, K320A/K321A); experiment: BIKE pSENs assay; assay type: biochemical
T1 construct: against BIKE (amino acids S38-E345) (K320A, K321A); 6His (N, cleaved yes)
Protocol: (§1) The recombinant proteins were independently expressed in Escherichia coli BL21(DE3) cells cultured in Luria-Bertani (LB) medium until OD600 reached 0.6-0.8, then cooled to 15° C. and supplemented with 0.5 mM isopropyl 1-thio-D-galactopyranoside (IPTG) induce protein expression 16 h. Cells were harvested and resuspended in lysis buffer (50 mM HEPES pH 7.5, 500 mM NaCl, 5 mM imidazole, 5% glycerol, 0.5 mM Tris (2-carboxyethyl) phosphine (TCEP), cOmplete Protease Inhibitor Tablet (Roche)) and lysed by microfludics high pressure homogenizer (UH-06, Union-Biotech). Proteins were purified using […] chromatography (His FF column, Bestchrom) and eluted stepwise in binding buffer with 20-300 mM imidazole. Removal of the hexahistidine tag was performed at 4° C. overnight using recombinant TEV protease and reacted with BirA to obtain the corresponding biotinylated-AAK1, BIKE or GAK proteins. Further separated in the reverse Strep column (Strep-Tactin® XT, IBA). The Biotin elution sample was collected containing untagged biotinylated protein was then purified by Ion-exchange chromatography (Mono Q 10/100 GL, Cytiva) and Size-exclusion chromatography (HiLoad 16/600 Superdex 200 pg, Cytiva). The pure protein was stored in a storage buffer 50 mM HEPES (pH 7.5), 300 mM NaCl, 5% glycerol at −80° C. Protein were characterized by SDS-PAGE, LC-MS and aSEC.
(§2) BIKE protein was dissolved at 20 nM in 1× enzyme solution (50 mM HEPES pH7.5, 10 mM MgCl2, 1 mM DTT, 1% glycerol, 0.5 mM EGTA, 0.01% Briji35, 0.02% BSA) and 12.5 ul was incubated with 250 nl DMSO or 250 nl compound in DMSO at 25° C. for 15 min. The reaction was started by addition of 12.5 ul of 30 uM AQT0759 (Assayquant, CSKS-AQT0759B) and 40 uM ATP which were diluted in 1× substrate dilution buffer (50 mM HEPES pH7.5, 10 mM MgCl2, 1 mM DTT, 1% glycerol, 0.5 mM EGTA, 0.01% Briji35).

[2] = biological target: AAK1 (Homo sapiens, UniProt Q2M2I8); experiment: pAP2M1 cell-based assay (in-cell Western)
From the text: pAP2M1 Cell-Based Assay (in-Cell Western):
The plate was read on Licor Odyssey CLx imaging system (LICOR) to acquire fluorescence intensity at 700 channel and 800 channel.
Data analysis: Fluorescence intensity at 700 channel served as internal standard and 800 channel were normalized with 700 channel.

[3] = biological target: T2, AAK1 (amino acids T27-A365) (Homo sapiens, UniProt Q2M2I8); experiment: AAK1 pSENs assay; assay type: biochemical
T2 construct: against AAK1 (amino acids T27-A365); 6His (N, cleaved yes)
Protocol: as §1
as §2, with “This example describes one illustrative method for determining the IC50 of the compounds of the present invention against AAK1 (amino acids T27-A365). AAK1” for “BIKE”, “70” for “40”

[4] = class symbols, read-out: BIKE pSENs: IC50
[5] = Hela cells co-transfected with AP2M1 and AAK1, 3 hr treatment, class symbols, read-out: AAK1 In-cell Western: IC50
[6] = class symbols, read-out: AAK1 pSENs: EIC50

Chain of AAK1 (Q2M2I8 whole entry): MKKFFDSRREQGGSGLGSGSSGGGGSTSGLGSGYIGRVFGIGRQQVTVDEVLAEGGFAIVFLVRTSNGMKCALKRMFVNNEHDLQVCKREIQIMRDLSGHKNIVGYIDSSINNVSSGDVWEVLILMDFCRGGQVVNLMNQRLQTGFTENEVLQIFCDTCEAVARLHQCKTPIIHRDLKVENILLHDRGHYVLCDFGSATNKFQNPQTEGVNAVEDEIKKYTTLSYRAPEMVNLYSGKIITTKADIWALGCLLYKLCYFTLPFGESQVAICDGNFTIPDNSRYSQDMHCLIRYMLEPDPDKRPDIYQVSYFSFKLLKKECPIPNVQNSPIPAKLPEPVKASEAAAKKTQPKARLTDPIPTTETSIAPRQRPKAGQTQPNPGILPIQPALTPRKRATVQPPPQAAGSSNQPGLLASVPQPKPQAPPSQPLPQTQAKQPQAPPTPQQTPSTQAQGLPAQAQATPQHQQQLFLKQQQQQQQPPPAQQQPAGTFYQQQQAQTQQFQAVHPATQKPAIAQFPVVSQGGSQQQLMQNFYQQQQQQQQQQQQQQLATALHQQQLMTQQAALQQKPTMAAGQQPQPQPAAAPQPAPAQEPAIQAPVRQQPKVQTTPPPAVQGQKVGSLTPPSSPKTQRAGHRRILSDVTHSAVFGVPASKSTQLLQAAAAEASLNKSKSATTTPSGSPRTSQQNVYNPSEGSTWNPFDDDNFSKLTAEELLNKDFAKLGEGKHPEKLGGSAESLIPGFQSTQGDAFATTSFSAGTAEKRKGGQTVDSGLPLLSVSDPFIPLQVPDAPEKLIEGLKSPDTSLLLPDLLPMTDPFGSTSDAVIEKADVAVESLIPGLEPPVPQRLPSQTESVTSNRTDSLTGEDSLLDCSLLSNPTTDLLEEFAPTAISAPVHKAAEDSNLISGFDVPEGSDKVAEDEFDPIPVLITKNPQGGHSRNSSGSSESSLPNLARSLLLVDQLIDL
T2 sequence (Q2M2I8 27-365): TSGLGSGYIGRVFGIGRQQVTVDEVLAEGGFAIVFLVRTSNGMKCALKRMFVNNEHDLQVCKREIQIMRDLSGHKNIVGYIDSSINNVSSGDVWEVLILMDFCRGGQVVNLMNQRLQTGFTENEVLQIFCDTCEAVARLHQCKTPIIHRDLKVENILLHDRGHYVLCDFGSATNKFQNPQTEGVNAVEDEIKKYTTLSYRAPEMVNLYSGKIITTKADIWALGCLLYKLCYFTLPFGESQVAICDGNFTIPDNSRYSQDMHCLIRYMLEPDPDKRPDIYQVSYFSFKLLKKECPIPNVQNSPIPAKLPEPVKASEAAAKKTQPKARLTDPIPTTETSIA
T1 sequence (Q9NSY1 38-345 K320A/K321A): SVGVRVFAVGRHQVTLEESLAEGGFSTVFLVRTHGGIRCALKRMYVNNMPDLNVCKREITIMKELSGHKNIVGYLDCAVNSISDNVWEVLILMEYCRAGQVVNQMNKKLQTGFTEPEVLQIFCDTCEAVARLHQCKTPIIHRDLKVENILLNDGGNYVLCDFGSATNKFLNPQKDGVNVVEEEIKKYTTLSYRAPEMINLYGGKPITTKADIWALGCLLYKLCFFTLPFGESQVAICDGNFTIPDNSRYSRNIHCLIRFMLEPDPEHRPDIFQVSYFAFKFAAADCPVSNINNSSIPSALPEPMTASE

Row | IC50 [1, 4] | IC50 [2, 5] | IC50 [3, 6] | SMILES | IC50 [2] | IC50 [3] | IC50 [1]
1 | 501 to 1500 nM | 151 to 500 nM | 1 to 50 nM | CC1(OC(=O)N2CCN(c3ccn4ncc(-c5cccnc5OC5COC5)c4n3)CC2)COC1 [Compound I-18, (3-Methyloxetan-3-yl)-4-[3-[2-(oxetan-3-yloxy)-3-pyridyl]pyrazolo[1,5-a]pyrimidin-5-yl]piperazine-1-carboxylate] | – | – | –
2 | 151 to 500 nM | > 1500 nM | 1 to 50 nM | O=C1C[C@H](OC(=O)N2CCN(c3ccn4ncc(-c5cccnc5OC5COC5)c4n3)CC2)CN1 [Compound I-25, [(3S)-5-Oxopyrrolidin-3-yl]4-[3-[2-(oxetan-3-yloxy)-3-pyridyl]pyrazolo[1,5-a]pyrimidin-5-yl]piperazine-1-carboxylate] | – | – | –
3 | 501 to 1500 nM | 501 to 1500 nM | 1 to 50 nM | CC(C)Oc1ncccc1-c1cnn2ccc(N3CCN(C(=O)O[C@@H]4CNC(=O)C4)CC3)nc12 [Compound I-26, [(3S)-5-Oxopyrrolidin-3-yl]-4-[3-(2-isopropoxy-3-pyridyl)pyrazolo[1,5-a]pyrimidin-5-yl]piperazine-1-carboxylate] | – | – | –
4 | 151 to 500 nM | 151 to 500 nM | 1 to 50 nM | O=C(O[C@H]1CO[C@H]2OCC[C@H]21)N1CCN(c2ccn3ncc(-c4cccnc4OC4CC4)c3n2)CC1 [Compound I-27, [(3aS,4R,6aR)-2,3,3a,4,5,6a-hexahydrofuro[2,3-b]furan-4-yl]-4-[3-[2-(cyclopropoxy)-3-pyridyl]pyrazolo[1,5-a]pyrimidin-5-yl]piperazine-1-carboxylate] | – | – | –
5 | 51 to 150 nM | > 1500 nM | 1 to 50 nM | O=C(O[C@H]1CC(=O)N(C2CCNCC2)C1)N1CCN(c2ccn3ncc(-c4cccnc4OC4CC4)c3n2)CC1 [Compound I-32, [(3S)-5-Oxo-1-(4-piperidyl)pyrrolidin-3-yl]4-[3-[2-(cyclopropoxy)-3-pyridyl]pyrazolo[1,5-a]pyrimidin-5-yl]piperazine-1-carboxylate] | – | – | –
6 | 51 to 150 nM | 501 to 1500 nM | 1 to 50 nM | CNCCN1C[C@@H](OC(=O)N2CCN(c3ccn4ncc(-c5cccnc5OC5CC5)c4n3)CC2)CC1=O [Compound I-36, (S)-1-(2-(methylamino)ethyl)-5-(oxopyrrolidin-3-yl)-4-(3-(2-cyclopropoxypyridin-3-yl)pyrazolo[1,5-a]pyrimidin-5-yl)piperazine-1-carboxylate] | – | – | –
7 | 151 to 500 nM | > 1500 nM | 1 to 50 nM | O=C1C[C@H](OC(=O)N2CCN(c3ccn4ncc(-c5cccnc5OC5CC5)c4n3)CC2)CN1CCO [Compound I-38, [(3S)-1-(2-Hydroxyethyl)-5-oxo-pyrrolidin-3-yl]-4-[3-[2-(cyclopropoxy)-3-pyridyl]pyrazolo[1,5-a]pyrimidin-5-yl]piperazine-1-carboxylate] | – | – | –
8 | 151 to 500 nM | 501 to 1500 nM | 1 to 50 nM | C[C@@H]1CN(c2ccn3ncc(-c4cccnc4OC4CC4)c3n2)CCN1C(=O)O[C@@H]1CNC(=O)C1 [Compound I-39, [(3S)-5-oxopyrrolidin-3-yl]-(2R)-4-[3-[2-(cyclopropoxy)-3-pyridyl]pyrazolo[1,5-a]pyrimidin-5-yl]-2-methyl-piperazine-1-carboxylate] | – | – | –
9 | 151 to 500 nM | 501 to 1500 nM | 1 to 50 nM | CC(C)(C)OC(=O)N1CC(Oc2ncccc2-c2cnn3ccc(N4CCN(C(=O)O[C@@H]5CNC(=O)C5)CC4)nc23)C1 [Compound I-42] | – | – | –
10 | 501 to 1500 nM | 151 to 500 nM | 1 to 50 nM | CN1CC[C@@](C)(OC(=O)N2CCN(c3ccn4ncc(-c5cccnc5OC5CC5)c4n3)CC2)C1 [Compound I-50, [(3R)-1,3-dimethylpyrrolidin-3-yl]-4-[3-[2-(cyclopropoxy)-3-pyridyl]pyrazolo[1,5-a]pyrimidin-5-yl]piperazine-1-carboxylate] | – | – | –
11 | 51 to 150 nM | – | 1 to 50 nM | [2H]C([2H])([2H])N1C[C@@H](OC(=O)N2CCN(c3nc4c(-c5cccnc5OC5CC5)cnn4cc3F)CC2)CC1=O [Compound I-116, [(3S)-5-oxo-1-(trideuteriomethyl)pyrrolidin-3-yl]4-[3-[2-(cyclopropoxy)-3-pyridyl]-6-fluoro-pyrazolo[1,5-a]pyrimidin-5-yl]piperazine-1-carboxylate] | – | – | –
12 | 51 to 150 nM | – | 1 to 50 nM | [2H]C([2H])([2H])N1C[C@@H](OC(=O)N2CCN(c3nc4c(-c5cc(F)cnc5OC5CC5)cnn4cc3F)CC2)CC1=O [Compound I-118, [(3S)-5-oxo-1-(trideuteriomethyl)pyrrolidin-3-yl]4-[3-[2-(cyclopropoxy)-5-fluoro-3-pyridyl]-6-fluoro-pyrazolo[1,5-a]pyrimidin-5-yl]piperazine-1-carboxylate] | – | – | –

Row | SMILES | IC50 [1, 4] | IC50 [2, 5] | IC50 [3, 6] | IC50 [2] | IC50 [3] | IC50 [1]
13 | CC(C)Oc1ncccc1-c1cnn2ccc(N3CCN(C(=O)OC4(C)COC4)CC3)nc12 [Compound I-1, (3-methyloxetan-3-yl)-4-[3-(2-isopropoxy-3-pyridyl)pyrazolo[1,5-a]pyrimidin-5-yl]piperazine-1-carboxylate] | 501 to 1500 nM | – | – | 501 to 1500 nM | 51 to 150 nM | –
14 | CC1(OC(=O)N2CCN(c3ccn4ncc(-c5cccnc5OC5CC5)c4n3)CC2)COC1 [Compound I-2, (3-methyloxetan-3-yl)-4-[3-[2-(cyclopropoxy)-3-pyridyl]pyrazolo[1,5-a]pyrimidin-5-yl]piperazine-1-carboxylate] | 151 to 500 nM | 51 to 150 nM | 1 to 50 nM | – | – | –
15 | COc1ncccc1-c1cnn2ccc(N3CCN(C(=O)OC4CNC(=O)C4)CC3)nc12 (stereo not shown) [Compound I-6, (5-Oxopyrrolidin-3-yl) 4-[3-(2-methoxy-3-pyridyl)pyrazolo[1,5-a]pyrimidin-5-yl]piperazine-1-carboxylate] | 1 to 50 nM | 501 to 1500 nM | 1 to 50 nM | – | – | –
16 | O=C1C[C@@H](OC(=O)N2CCN(c3ccn4ncc(-c5cccnc5OC5CC5)c4n3)CC2)CN1 [Compound I-10, [(3R)-5-Oxopyrrolidin-3-yl]-4-[3-[2-(cyclopropoxy)-3-pyridyl]pyrazolo[1,5-a]pyrimidin-5-yl]piperazine-1-carboxylate] | 151 to 500 nM | 501 to 1500 nM | 1 to 50 nM | – | – | –
17 | O=C1C[C@H](OC(=O)N2CCN(c3ccn4ncc(-c5cccnc5OC5CC5)c4n3)CC2)CN1 [Compound I-11, [(3S)-5-Oxopyrrolidin-3-yl]-4-[3-[2-(cyclopropoxy)-3-pyridyl]pyrazolo[1,5-a]pyrimidin-5-yl]piperazine-1-carboxylate hydrochloric acid] | 151 to 500 nM | 151 to 500 nM | 1 to 50 nM | – | – | –
18 | CC(C)(C)OC(=O)N1CCC(N2C[C@@H](OC(=O)N3CCN(c4ccn5ncc(-c6cccnc6OC6CC6)c5n4)CC3)CC2=O)CC1 [Compound I-30, [(3S)-1-(1-tert-Butoxycarbonyl-4-piperidyl)-5-oxo-pyrrolidin-3-yl]4-[3-[2-(cyclopropoxy)-3-pyridyl]pyrazolo[1,5-a]pyrimidin-5-yl]piperazine-1-carboxylate] | 501 to 1500 nM | > 1500 nM | 51 to 150 nM | – | – | –
19 | CN1C[C@@H](OC(=O)N2CCN(c3ccn4ncc(-c5cccnc5OC5CC5)c4n3)CC2)CC1=O [Compound I-34, [(3S)-1-methyl-5-oxo-pyrrolidin-3-yl]-4-[3-[2-(cyclopropoxy)-3-pyridyl]pyrazolo[1,5-a]pyrimidin-5-yl]piperazine-1-carboxylate] | – | 151 to 500 nM | 1 to 50 nM | – | – | 151 to 500 nM

Reference: patent US20250122207A1, “AP2 ASSOCIATED KINASE 1 INHIBITORS AND USES THEREOF” (Satellos Bioscience Inc., priority 2023, published 2025)
